Series [1] relates to RPMI 8226 (multiple myeloma). In words: MTT cell viability, lymphoma and myeloma cells. In kind it is cell-based. Particulars: Homo sapiens; for IC50: read-out: concentration (IC50 value of 72 hours). Here is the method:
(§1) Well-growing cells of above were obtained and inoculated into wells of a 96-well cell culture plate at 5000 cells/well. Separate compounds of various concentrations were added, mixed uniformly, and incubated (5% CO2) at 37° C. for 72 hours. Then the cell viability was determined by the MTT method.
(§2) b) Determine the inhibitory effects of TTD in combination with Ada A on the above cells. The pretreatment of the cells was the same as in a). The control group was not treated with the compound while administered. […] As to the combination group, two compounds were added together into the same group of wells, with the fmal concentrations being the concentrations to which the IC50 values of the two single drugs correspond. After 72 hours of incubation, the MTT method was used for the determination of cell viability. The cell viability of the control group was set to 100% in this experiment, and the TTD, Ada A single drug and combined effects on cell viability (%) were calculated.

Series [2] concerns Raji (human Burkitt lymphoma cells). In words: MTT cell viability, lymphoma and myeloma cells. In kind it is cell-based. The note with it: 72 h; for IC50: read-out: concentration (IC50 value of 72 hours). Here is the method:
as §1, §2

The subject of series [3] is A549 transplanted tumor (human non-small cell lung cancer cell line). The experiment in a line: Example 5: Acla A on A549 transplanted tumor in nude mice. The format is in vivo, BALB/c-nu nude mice. The procedure:
(§3) Under sterile conditions, the above tumor cells were collected in the logarithmic growth phase. A549 was injected by subcutaneous injection in an amount of 6×10 6/0.2 mL/nude mice (cell viability>90%) into the right subaxillary of the nude mice, thus establishing transplated tumor models of lung cancer in nude mice. The mice were administered from the second day after the inoculation. The experimental group was intragastrically administered at the experimentally designed amount, the negative control group was intragastrically administered with sterile water, and the positive control group is intragastrically administered with Jef. Each mouse was intragastrically administered in 0.4 ml each time and 2 times a day, at 8:00, and 14:00. The administrations were successive for 14 days. The day before administration was deemed as Day 0 and the body weight and tumor size of the mice were determined every 5 days to produce a dynamic plot on body weight and tumor growth. On Day 20, the mice were sacrificed and the tumors were taken out and weighed. The tumor inhibition rate (%) was calculated after the effect of the medicament based on a tumor inhibition rate of the control group being zero.
(§4) The values determined were presented as mean±standard error (Mean±SD). The experimental data for each group was analyzed with One-way ANOVA method in the SPSS 18.0 statistical software, and p<0.05 means that the differences are statistically significant.

A short description of series [4]: Example 5: body weight of tumor-bearing nude mice. The format is in vivo, BALB/c-nu nude mice. The procedure:
as §3, with “The experimental group was intragastrically administered at the experimentally designed amount, the negative control group was intragastrically administered with sterile water, and the positive control group is intragastrically administered with Jef.” left out
as §4

The subject of series [5] is leukemic cell lines L1210 and P388. The note with it: mice inoculated with L1210 and P388, 0.5-5 mg/kg/day for 10 consecutive days; cited from earlier work.
Series [6] has as its system mouse leukemia P388 and human gastric cancer cell line SGC-7901. Particulars: 0.01 μg/ml, in vitro; cited from earlier work.
The next series deals with leukemia mice. Particulars: cited from earlier work.
Series [7] concerns acute lymphoblastic leukemia (ANLL). Particulars: initial treatment of ANLL; cited from earlier work.
The conditions of series [8]: rats, cited from earlier work.
The test system of series [9] is A549 transplanted tumor (human non-small cell lung cancer cell line). In words: Example 4: TTD on A549 transplanted tumor in nude mice. The format is in vivo, BALB/c-nu nude mice. Particulars: A549, TTD 50 mg/kg/time intragastric, 3 times a day, 10 days, Day 24; for tumor inhibition rate: control = 0. Here is the method: (§5) Under sterile conditions, the above tumor cells were collected in the logarithmic growth phase. A549 was injected by subcutaneous injection in an amount of 1×10 7/0 2 mL/nude mice (cell viability>90%) into the right subaxillary of the nude mice, and Hep G2 was injected by subcutaneous injection in an amount of 1×10^7/0.2 mL/nude mice (cell viability>90%) into the left subaxillary of the nude mice thus establishing transplated tumor models of lung cancer and liver cancer respectively in nude mice. The administration was carried out from the second day after the inoculation. The experimental group was intragastrically administered at the experimentally designed amount, the negative control group is intragastrically administered with sterile water, and the positive control group was intragastrically administered with Jef. Each mouse was intragastrically administered in 0.4 ml each time and 3 times a day, at 8:00, 14:00 and 20:00. The administrations were successive for 10 days. The day before administration was deemed as Day 0 and the body weight and tumor size of the mice were determined every 5 days to produce a dynamic plot on body weight and tumor growth. On Day 24, the mice were sacrificed and the tumors were taken out and weighed. The tumor inhibition rate (%) was calculated after the effect of the medicament based on a tumor inhibition rate of the control group being zero.
as §4

Series [10] has as its system Hep G2 transplanted tumor (human hepatoma carcinoma cell). In words: Example 4: TTD on Hep G2 transplanted tumor in nude mice. Particulars: Hep G2, TTD 50 mg/kg/time intragastric, 3 times a day, 10 days, Day 24. In kind it is in vivo, BALB/c-nu nude mice. Here is the method:
as §5, with “The experimental group was intragastrically administered at the experimentally designed amount, the negative control group is intragastrically administered with sterile water, and the positive control group was intragastrically administered with Jef. Each mouse was intragastrically administered in 0.4 ml each time and 3 times a day, at 8:00, 14:00 and 20:00. The administrations were successive for 10 days.” left out, “On Day 24, the mice were sacrificed and the tumors were taken out and weighed.” left out
as §4

Series [11] is described as follows: Example 4: body weight of tumor-bearing nude mice. The format is in vivo, BALB/c-nu nude mice. The procedure:
as §5, §4

Each structure is given as a SMILES string. Where two headings read alike, the source gives them in different places.

One may read the viability as the share of living cells, or the viability signal relative to a control. For orientation: bioavailability means the share of a dose that reaches the circulation, judged against a reference dose that is usually intravenous.

For the compound `CC[C@@]1(O)C[C@H](O[C@H]2C[C@H](N(C)C)[C@H](O[C@H]3C[C@H](O)[C@H](O[C@H]4CCC(=O)[C@H](C)O4)[C@H](C)O3)[C@H](C)O2)c2c(cc3c(c2O)C(=O)c2c(O)cccc2C3=O)[C@H]1C(=O)OC` [Acla A, aclarubicin A], the viability at 0.035 µg/mL in series [1] (RPMI-8226, 72 h, read-out: CV (cell viability)) turned out to be 42.1%. For the same compound, in series [1] (RPMI-8226, 72 h), the IC50 came out at 0.035 µg/mL. The viability at 0.03 µg/mL in [2] (read-out: CV (cell viability)) was 42.6%. Also, the IC50 in series [2] worked out at 0.03 µg/mL. For the same compound, in series [3] (A549, Acla A 1 mg/kg/time), the “inhibitory effect on lung cancer transplanted tumor (in words)” value is “did not exhibit good inhibitory effect”. The Mass of tumor in series [3] (A549, Acla A 1 mg/kg/time intragastric, 2 times a day, 14 days, Day 20, Mean ± SD) is 0.50 ± 0.19 g. Further, the tumor inhibition rate in [3] (A549, Acla A 1 mg/kg/time intragastric, 2 times a day, 14 days, Day 20, control = 0) is recorded as −51.52%. In series [4] (Acla A 1 mg/kg/time intragastric, 2 times a day, 14 days, Day 20, Mean ± SD, n=3), the “body weight, Final” value is 18.5 ± 1.10 g. Further, in [4] (Acla A 1 mg/kg/time intragastric, 2 times a day, 14 days, Mean ± SD, n=3), the “body weight, Initial” value turned out to be 21.0 ± 0.23 g. The “dynamic variation of the body weight (in words)” value in series [4] (Acla A 1 mg/kg/time, during administration, recovered gradually after termination) is recorded as “partial reduction in the body weight”. Besides, the “survival rate increased, compared with mice without antibiotics injection” value in [5] is listed as 150%. The cloning formation inhibited in series [6] is reported as 65.4%. In addition, the “prolonging the lifetime of the mice” value with leukemia mice was 143%. In addition, in [7], the “complete remission rate (CR)” value is reported as “up to 70%”. For the same compound, in [8] (intravenous injection), the “half-life t1/2” value was 16 to 21 h. Besides, in series [8] (oral administration), the bioavailability is 35% and the “biological half-life t1/2” value is reported as 36.5 h.

Consider `COc1ccc2cc1Oc1ccc(cc1)C[C@H]1c3cc(c(OC)cc3CCN1C)Oc1c(OC)c(OC)cc3c1[C@H](C2)N(C)CC3` [TTD, tetrandrine], for which the IC50 is 0.3 µg/mL in [1] (RPMI 8226, single compound, 72 h, MTT) and 1 µg/mL in series [2] (single compound, MTT). In addition, in [2] (TTD 1 μg/mL, MTT, control = 100%, read-out: CV (cell viability)), the viability at 1 µg/mL was 46.9%. The Mass of tumor in series [9] (Mean ± SD) is recorded as 0.23 ± 0.35 g; in series [10] (Mean ± SD) it was 0.53 ± 0.32 g. Also, the figures for the tumor inhibition rate entry in [9], in [9] (listed as TTD50) and in series [10] (control = 0) were “up to 38%”, 38.02% and −33.36%, respectively. Besides, the “body weight, Final” value in series [11] (TTD 50 mg/kg/time intragastric, 3 times a day, 10 days, Day 24, Mean ± SD, n=3) amounted to 20.6 ± 1.74 g. In addition, the “body weight, Initial” value in series [11] (TTD 50 mg/kg/time intragastric, 3 times a day, 10 days, Mean ± SD, n=3) is on record as 21.1 ± 0.25 g. Also, the “dynamic variation of the body weight (in words)” value in series [11] (TTD 50 mg/kg/time, during administration, recovered gradually after termination) is listed as “partial reduction in the body weight”.

These data come from patent US20150290232A1, “DRUG COMPOSITION FOR TREATING TUMORS AND APPLICATION THEREOF” (priority 2012, published 2015).
